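48-hour exposure; five concentrations; linearly interpolated endpoints. Here, GI50 denotes the concentration required for 50% inhibition of growth.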 Activity calls are given as the source filed them. No stated cut-off is given here; in the data, active = GI50 up to about 1.1 µM and inactive = higher.
Assays:
Experiment in all cases: NCI-60 cell line screen, 48 h
SW-620 = system: SW-620
UACC-257 = system: UACC-257
OVCAR-5 = system: OVCAR-5
DU-145 = system: DU-145
TK-10 = system: TK-10
CAKI-1 = system: CAKI-1
NCI/ADR-RES = system: NCI/ADR-RES
IGROV-1 = system: IGROV-1
UO-31 = system: UO-31
HT-29 = system: HT-29
SK-MEL-2 = system: SK-MEL-2
NCI-H460 = system: NCI-H460
CCRF-CEM = system: CCRF-CEM
SNB-75 = system: SNB-75
RXF 393 = system: RXF 393
MDA-MB-435 = system: MDA-MB-435
Hs-578T = system: Hs-578T
MOLT-4 = system: MOLT-4
HOP-92 = system: HOP-92
NCI-H226 = system: NCI-H226

Measured: GI50

N#CC1C(=O)NC(=O)C(C#N)C1c1ccc(Cl)c(Cl)c1 (centres undefined)
inactive: SW-620 16.7 µM | UACC-257 35.9 µM | OVCAR-5 23.4 µM | DU-145 37.5 µM | TK-10 35.3 µM | CAKI-1 22.4 µM | NCI/ADR-RES 28 µM | IGROV-1 18.1 µM | UO-31 16.5 µM | HT-29 16.7 µM | SK-MEL-2 80.2 µM | NCI-H460 30.1 µM | CCRF-CEM 13.6 µM | SNB-75 25.2 µM | RXF 393 21 µM | MDA-MB-435 22.7 µM | Hs-578T 23.1 µM | MOLT-4 26.9 µM | HOP-92 37.4 µM

[N-]=[N+]=NC1(c2ccccc2)C(=O)c2cccc3c4ccccc4n(c23)C1=O (centres undefined)
inactive: SW-620 > 100 µM | UACC-257 > 100 µM | OVCAR-5 > 100 µM | DU-145 > 100 µM | TK-10 > 100 µM | CAKI-1 > 100 µM | NCI/ADR-RES 33.5 µM | IGROV-1 > 100 µM | UO-31 > 100 µM | HT-29 18.4 µM | SK-MEL-2 > 100 µM | NCI-H460 > 100 µM | CCRF-CEM 64.3 µM | NCI-H226 > 100 µM | SNB-75 > 100 µM | RXF 393 > 100 µM | MDA-MB-435 27.9 µM | Hs-578T > 100 µM | MOLT-4 98.4 µM

COc1ccc(Nc2nc3ccccc3nc2C(=O)O)cc1
inactive: SW-620 37.6 µM | UACC-257 > 100 µM | OVCAR-5 > 100 µM | DU-145 76.7 µM | TK-10 > 100 µM | CAKI-1 46.6 µM | NCI/ADR-RES 38.9 µM | IGROV-1 87.9 µM | UO-31 40 µM | HT-29 > 100 µM | SK-MEL-2 > 100 µM | NCI-H460 23.6 µM | CCRF-CEM 44 µM | SNB-75 59.7 µM | RXF 393 > 100 µM | MDA-MB-435 > 100 µM | Hs-578T 16 µM | MOLT-4 84.1 µM | HOP-92 > 100 µM

COc1cc(/C=C\C(=O)O)ccc1OCc1ccccc1
inactive: SW-620 > 100 µM | UACC-257 > 100 µM | OVCAR-5 > 100 µM | DU-145 > 100 µM | TK-10 > 100 µM | CAKI-1 > 100 µM | NCI/ADR-RES > 100 µM | IGROV-1 > 100 µM | UO-31 > 100 µM | SK-MEL-2 > 100 µM | NCI-H460 > 100 µM | CCRF-CEM > 100 µM | RXF 393 > 100 µM | MDA-MB-435 > 100 µM | Hs-578T 49.3 µM | MOLT-4 > 100 µM | HOP-92 20.3 µM

Source: ChEMBL document CHEMBL1201862, “PubChem BioAssay data set” (2004)
